Source: patent US20250109127A1, “METHODS OF USE OF PHENOXYPROPYLAMINE COMPOUNDS TO TREAT DEPRESSION” (Minerva Neurosciences, Inc., priority 2013, published 2025)
Values joined by “and” are separate entries in the source; they are usually repeats but may differ in a detail not shown here. Equal values may be shown once. Where a name gives a salt, the structure may show the parent alone.

System: dopamine release in the rat prefrontal cortex
Experiment: Microdialysis: dopamine release in prefrontal cortex after I.P. administration
Type: in vivo
Settings: for DOPAMINE (% of respective basal), individual animal: 0.1 mg/kg I.P., c2-c9 = R#13,14,20,19,25,26,31,32; for DOPAMINE (% of respective basal), individual animal / Dopamine release, individual animals: hydrochloride; for Dopamine release, MEAN / Dopamine release, individual animals: 0.3 mg/kg I.P.; for Dopamine release, MEAN: n = 8; for Dopamine release, individual animals: one column per animal R#11,12,18,23,29,30,17,24
Description: The aim of the study was to evaluate, using microdialysis, the effects of an intraperitoneal (I.P.) administration in rats of three different doses of SON-117 on dopamine and its metabolites, serotonin and its metabolite (5-HIAA), and norepinephrine levels in prefrontal cortex.
Thirty-two adult male Wistar rats were used for the whole study (4 groups of eight animals planned for the study, Table 1).
Surgery was performed on rats weighing about 300 g at the beginning of the experiments. Rats were anaesthetized with Ketamine (50 mg/kg) & Xylazine (15 mg/kg) by intramuscular administration. The animals were placed in a stereotaxic apparatus in the flat-skull position at a constant setting of −3.3 mm between ear bars and the incisor bar. The animals were treated with a local anesthesic (xylocaine 1%, Astra Zeneca) and an analgesic (Temgesic, from Schering Plough, 0.05 mg/kg, s.c.). A rostrocaudal midline incision was made with a lancet to expose the dorsal skull surface. The “stereotaxic zero” was defined by the Bregma in accordance with Paxinos and Watson's atlas (1986). A hole was drilled in the skull with a drill and the meninges were pierced with a sterile needle to implant a CMA12 guide cannula which later received the dialysis probe.
Coordinates used for implanting guide cannula in prefrontal cortex from Bregma were anteroposterior 3.7 mm, mediolateral 0.8 mm, and dorsoventral −2 mm (top of the probe was at −5 mm). The guide cannula was fixed to the skull with two stainless steel screws (1.88 mm outside diameter) anchored. An application of dental cement was added. A plastic collar allowed each animal to be tethered to a Swivel assembly of the CMA 120 awake animal system. Following surgery, rats were kept in individual cages and allowed to recover for a minimum of 3-5 days before the experimentation. The rats were handled and put in plastic bowl for 10 min at least every day to habituate the animals to their new environment for the dialysis. An I.P. administration with saline was also performed every day.
Dialysis probes (CMA12/3 mm, membrane, 20 kD cut-off, Carnegie Medicine, Stockholm, Sweden), were carefully washed before inserting into the guide cannula. The wash was performed with the artificial cerebrospinal fluid (aCSF) medium (NaCl 147 mM, KCl 2.7 mM, CaCl2 1.2 mM, MgCl2 0.85 mM) at room temperature. The dialysis system was then equilibrated at 20° C. at a perfusion rate of 1 μl/min with a Carnegie pump (CMA100). All catheters (FEP tubing, internal volume of 1.2 μl/10 cm, and tubing adaptors) used for microdialysis were treated in the same conditions.
The probes duly prepared were inserted into the guide cannula and the CMA120 Swivel assembly secured to the animal using a plastic collar. Flow through the dialysis probe with aCSF was maintained at a rate of 1 μl/min during the whole experimentation. The first four fractions (corresponding to 2 hours) were discarded to avoid the effects of parenchymal disturbance and to ensure that an approximate steady-state level was reached. Fractions were then collected over a period of 8.5 h during which time the animals remained quiet. The dialysates were automatically collected with an autosampler (microfraction collector CMA 140, Carnegie Medicin) and stored at −80° C. until analysis. […] Perfusion was then maintained for 7 hours with aCSF. The dialysates (30 μl) were collected into 300 μl vials, transferred into dry ice and then kept frozen (−80° C.) until analysis. Frozen samples were shipped to a partner for analysis. At the end of the microdialysis study, a PBS with colored ink was perfused through the probe in order to visualize the dialyzed area.
Catecholamine assay: Concentrations of dopamine, DOPAC, HVA, 5-HIAA, 5-HT, and norepinephrin were determined for each sample by HPLC coupled with electrochemical detection.

Cc1nnc(-c2cc3c(OC[C@@H](O)CN4CCC(c5ccc(Cl)c(Cl)c5)CC4)cccc3o2)o1 [SON-117, (S)-1-(4-(3,4-dichlorophenyl)piperidino)-3-(2-(5-methyl-1,3,4-oxadiazol-2-yl)benzo(b)furan-4-yloxy)-2-propanol hydrochloride]
DOPAMINE (% of respective basal), individual animal (T30-T1 h): 78.42 % of respective basal and 144.00 % of respective basal and 128.77 % of respective basal and 71.43 % of respective basal and 151.01 % of respective basal and 47.86 % of respective basal and 101.52 % of respective basal | DOPAMINE (% of respective basal), individual animal (T1 h 30-T2 h): 36.00 % of respective basal and 142.72 % of respective basal and 334.21 % of respective basal and 140.61 % of respective basal and 189.68 % of respective basal and 109.22 % of respective basal and 110.24 % of respective basal | DOPAMINE (% of respective basal), individual animal (T1 h-T1 h 30): 48.68 % of respective basal and 33.57 % of respective basal and 218.55 % of respective basal and 176.05 % of respective basal and 99.52 % of respective basal and 198.57 % of respective basal and 106.01 % of respective basal and 103.54 % of respective basal | DOPAMINE (% of respective basal), individual animal (T2 h 30-T3 h): 23.71 % of respective basal and 100.08 % of respective basal and 315.3 % of respective basal and 95.2 % of respective basal and 171.39 % of respective basal and 293.73 % of respective basal and 72.19 % of respective basal and 35.99 % of respective basal | DOPAMINE (% of respective basal), individual animal (T2 h-T2 h 30): 84.44 % of respective basal and 172.82 % of respective basal and 179.35 % of respective basal and 87.73 % of respective basal and 1288.95 % of respective basal and 305.56 % of respective basal and 131.13 % of respective basal and 45.72 % of respective basal | DOPAMINE (% of respective basal), individual animal (T3 h 30-T4 h): 23.36 % of respective basal and 145.75 % of respective basal and 464.25 % of respective basal and 43.13 % of respective basal and 194.11 % of respective basal and 295.73 % of respective basal and 45.38 % of respective basal and 34.94 % of respective basal | DOPAMINE (% of respective basal), individual animal (T3 h-T3 h 30): 40.16 % of respective basal and 117.963 % of respective basal and 93.88 % of respective basal and 47.74 % of respective basal and 225.34 % of respective basal and 586.07 % of respective basal and 48.38 % of respective basal and 40.61 % of respective basal | DOPAMINE (% of respective basal), individual animal (T4 h 30-T5 h): 196.31 % of respective basal and 152.43 % of respective basal and 409.91 % of respective basal and 45.90 % of respective basal and 293.48 % of respective basal and 662.65 % of respective basal and 73.568 % of respective basal and 92.51 % of respective basal | DOPAMINE (% of respective basal), individual animal (T4 h-T4 h 30): 91.54 % of respective basal and 75.24 % of respective basal and 423.55 % of respective basal and 28.53 % of respective basal and 308.40 % of respective basal and 676.86 % of respective basal and 63.428 % of respective basal and 58.94 % of respective basal | DOPAMINE (% of respective basal), individual animal (T5 h 30-T6 h): 107.62 % of respective basal and 109.11 % of respective basal and 218.37 % of respective basal and 42.54 % of respective basal and 135.41 % of respective basal and 709.30 % of respective basal and 42.94 % of respective basal and 140.37 % of respective basal | DOPAMINE (% of respective basal), individual animal (T5 h-T5 h 30): 110.75 % of respective basal and 148.81 % of respective basal and 228.76 % of respective basal and 47.98 % of respective basal and 200.12 % of respective basal and 601.17 % of respective basal and 21.81 % of respective basal and 112.11 % of respective basal | DOPAMINE (% of respective basal), individual animal (T6 h 30-T7 h): 78.29 % of respective basal and 188.44 % of respective basal and 933.712 % of respective basal and 63.21 % of respective basal and 1205.29 % of respective basal and 126.67 % of respective basal | DOPAMINE (% of respective basal), individual animal (T6 h-T6 h 30): 130.81 % of respective basal and 238.5 % of respective basal and 88.84 % of respective basal and 62.29 % of respective basal and 146.28 % of respective basal and 882.60 % of respective basal and 95.56 % of respective basal and 166.52 % of respective basal | Dopamine release, MEAN (T0-T30 min): 128.24 % of respective basal | Dopamine release, MEAN (T30-T1 h): 131.35 % of respective basal | Dopamine release, individual animals (T30-T1 h): 103.18 % of respective basal and 54.05 % of respective basal and 146.65 % of respective basal and 93.66 % of respective basal and 168.96 % of respective basal and 281.64 % of respective basal and 59.20 % of respective basal and 143.48 % of respective basal | Dopamine release, MEAN (T1 h 30-T2 h): 90.06 % of respective basal | Dopamine release, individual animals (T1 h 30-T2 h): 91.90 % of respective basal and 29.89 % of respective basal and 33.64 % of respective basal and 64.84 % of respective basal and 106.30 % of respective basal and 119.82 % of respective basal and 81.21 % of respective basal and 192.86 % of respective basal | Dopamine release, MEAN (T1 h-T1 h 30): 94.40 % of respective basal | Dopamine release, individual animals (T1 h-T1 h 30): 50.19 % of respective basal and 44.28 % of respective basal and 51.46 % of respective basal and 70.10 % of respective basal and 123.34 % of respective basal and 256.96 % of respective basal and 56.09 % of respective basal and 102.79 % of respective basal | Dopamine release, MEAN (T2 h 30-T3 h): 95.29 % of respective basal | Dopamine release, individual animals (T2 h 30-T3 h): 53.62 % of respective basal and 111.85 % of respective basal and 131.64 % of respective basal and 82.81 % of respective basal and 130.53 % of respective basal and 91.04 % of respective basal and 42.56 % of respective basal and 118.24 % of respective basal | Dopamine release, MEAN (T2 h-T2 h 30): 112.22 % of respective basal | Dopamine release, individual animals (T2 h-T2 h 30): 78.18 % of respective basal and 201.28 % of respective basal and 102.58 % of respective basal and 57.76 % of respective basal and 140.27 % of respective basal and 171.47 % of respective basal and 131.71 % of respective basal and 14.48 % of respective basal | Dopamine release, MEAN (T3 h 30-T4 h): 131.87 % of respective basal | Dopamine release, individual animals (T3 h 30-T4 h): 348.64 % of respective basal and 164.63 % of respective basal and 39.78 % of respective basal and 87.76 % of respective basal and 122.97 % of respective basal and 30.76 % of respective basal and 128.55 % of respective basal | Dopamine release, MEAN (T3 h-T3 h 30): 133.65 % of respective basal | Dopamine release, individual animals (T3 h-T3 h 30): 263.92 % of respective basal and 284.14 % of respective basal and 32.71 % of respective basal and 88.53 % of respective basal and 186.05 % of respective basal and 14.29 % of respective basal and 65.93 % of respective basal | Dopamine release, MEAN (T4 h 30-T5 h): 99.61 % of respective basal | Dopamine release, individual animals (T4 h 30-T5 h): 204.04 % of respective basal and 138.52 % of respective basal and 77.42 % of respective basal and 28.77 % of respective basal and 97.45 % of respective basal and 26.06 % of respective basal and 62.98 % of respective basal and 161.60 % of respective basal | Dopamine release, MEAN (T4 h-T4 h 30): 126.41 % of respective basal | Dopamine release, individual animals (T4 h-T4 h 30): 99.34 % of respective basal and 210.06 % of respective basal and 195.26 % of respective basal and 40.10 % of respective basal and 119.18 % of respective basal and 52.10 % of respective basal and 159.91 % of respective basal and 135.30 % of respective basal | Dopamine release, MEAN (T5 h 30-T6 h): 263.98 % of respective basal
